From patent publication US20240180800A1, “Oral Care Compositions Containing Stannous Ion Source” (Colgate-Palmolive Company, priority 2022, published 2024)
One block for each compound: values may come before it.

Key:
Type in all cases: physicochemical
[1] = Iodine titration of Sn(II) in SnF2-TSPP solution with antioxidant upon aging at 60° C.; conditions: for Sn(II) %: after 2 weeks of aging at 60° C.
Procedure: (§1) The effect of antioxidants on the stannous stability in the presence of tetrasodium pyrophosphate (TSPP) was examined. Samples of Sn(II) were prepared by dissolving TSPP and SnF2 in water with the final concentration of SnF2 equal to 2 wt. %. Antioxidant (butylated hydroxytoluene (BHT), butylated hydroxyanisole (BHA), or sodium ascorbyl phosphate (SAP)) was added to the samples with the molar ratio of SnF2:TSPP:antioxidant equal to 1:1:0.3. The pH of the solutions was adjusted with NaOH to pH 7. The solutions were not fully clear due to the high concentration of SnF2 and limited solubility of certain antioxidants. Some amount of the precipitate/undissolved material was evident in the vials.
Iodine titration: The stability of Sn (II) was further examined by iodine titration assay. Titration measurements were performed through indirect titration. 2 M citric acid solution was added to the samples in excess and 0.1 N Iodine was added until the solutions turned light brown. The samples were covered with parafilm and aluminum foil and left mixing in the dark for 2 hours. Then, titration with 0.1 N sodium thiosulfate standard was performed using a 25 mL Titrette Bottletop Burette (BrandTech Scientific, Inc., Essex, CT, USA) until the solutions turned clear. Sn(II) concentration was calculated based on the amount of sodium thiosulfate and iodine used in the reaction. The amount of Sn(II) present in the SnF2-TSPP solution at different time points: fresh, 1 week and 2 weeks aged at 60° C. with and without the antioxidant (SAP, BHA, or BHT) was measured. The result is in good agreement with the FTIR result discussed above. The amount of Sn(II) was highest in the sample with SAP after 2 weeks of 60° C. aging.
(§2) In order to identify the optimal concentration of antioxidants (SAP and sodium ascorbate) that can increase stannous stability in aqueous solutions, samples of Sn(II) with TSPP and various concentrations of SAP or sodium ascorbate were tested for the stability of Sn(II). Samples of Sn(II) were prepared by dissolving TSPP and SnF2 in water with the final concentration of SnF2 equal to 2 wt %. Antioxidant (SAP or sodium ascorbate) was added to the samples with the molar ratio of SnF2:TSPP:antioxidant equal to 1:1:x, where x was between 0.05 and 0.3. The pH of the solutions was adjusted with NaOH to pH=7.
Iodine titration: The stability of Sn (II) was further examined by iodine titration assay. Titration measurements were performed as described in Example 1.

[2] = 119Sn NMR relative amount of Sn(II) in SnF2-TSPP solution with antioxidant upon aging at 60° C.; conditions: for Sn(II) left relative to fresh sample: SnF2:TSPP:antioxidant 1:1:0.3, pH 7, after 2 weeks of aging at 60° C.; for Sn(II) content relative to fresh sample: pH 7, after 2 weeks of aging at 60° C.
Procedure: as §1
Nuclear Magnetic Resonance (NMR): The stability of Sn (II) was further examined by Nuclear Magnetic Resonance (NMR). NMR measurements were performed on samples in the presence of 10% deuterium oxide (D20). All NMR spectra were acquired on a Bruker Avance spectrometer (Bruker-Biospin, Billerica, MA, USA) with a 5 mm liquid nitrogen cryogenic probe operating at 202 MHz for ^31P, and 186.5 MHz ^119Sn at 25° C. ^119Sn and ^31P NMR spectra were acquired on the samples of SnF2-TSPP with three antioxidants: SAP, BHA, or BHT. FIG. 3-5 show ^119Sn and ^31P NMR spectra of the samples upon aging. In the ^119Sn NMR spectra, the peak positioned at around −630 ppm corresponds to Sn(II) in solution at neutral pH. Once Sn(II) was oxidized to Sn(IV) upon aging, the Sn(II) peak intensity decreased and small Sn(IV) spikes appeared between −680 and −750 ppm. The relative amounts of Sn(II) compared to fresh sample were calculated by integrating the peak corresponding to Sn(II) in ^119Sn NMR spectra. The capacity of three […] to stabilize Sn(II) was compared by measuring the Sn(II) content in the samples. About 80% of Sn(II) was left in the samples in the presence of BHA and SAP after 2 weeks of aging at 60° C. BHT sample had 70% Sn(II) remaining after 2 weeks of aging. […] In the ^31P NMR spectra, the peak positioned at −8 ppm corresponds to TSPP.
as §2
Nuclear Magnetic Resonance (NMR): The stability of Sn (II) was further examined by Nuclear Magnetic Resonance (NMR). NMR measurements were performed as described in Example 1. ^119Sn and ^31P NMR spectra were acquired on the samples of SnF2-TSPP with SAP or sodium ascorbate at various SAP/Sn molar ratios, specifically between 0.05 and 0.3, upon aging at 60° C. FIGS. 9 and 10 show ^119Sn and ^31P NMR spectra of the samples upon aging. In the ^119Sn NMR spectra, the peak positioned at around −630 ppm corresponds to Sn(II) in solution at neutral pH. Once Sn(II) was oxidized to Sn(IV), the Sn(II) peak intensity decreased and small Sn(IV) spikes appeared between −680 and −750 ppm. […] The relative amounts of Sn(II) compared to fresh sample were quantified based on the Sn(II) NMR peak integral (FIG. 11A).

[3] = FTIR of SnF2-TSPP solution with antioxidant upon aging at 60° C.
Procedure: as §1
Fourier transform infrared spectroscopy (FTIR): Infrared spectra were collected using a Bruker Vertex 70 FTIR spectrometer (Bruker Optics, Billerica, MA) equipped with a GladiATR diamond ATR accessory (Pike technologies, Madison, WI). The spectral range was […] and a resolution of 4 cm^−1 was used. All measurements were carried out at room temperature. The absorption spectrum of solution containing SnF2 and TSPP (herein after referred to as SnF2-TSPP) in the 850-1240 cm^−1 region at different time points: fresh, 1 week and 2 weeks aged at 60° C. was examined. […] The transformation of the complex was manifested in the peak shifts and intensity changes of phosphate bands. […]

[4] = Head-space O2 consumption (differential pressure) during Sn(II) oxidation; conditions: 29 mM SnF2, 29 mM TSPP, SAP/Sn molar ratios 0.05 and 0.3, 25° C., about 6.5 hours, pH about 6.5
Procedure: Head-space O2 consumption: Stannous stability in presence of small amounts of SAP was further examined by measuring the rate of oxygen consumption during Sn(II) oxidation process. […] SnF2 was added last as a powder, and the flask was immediately scaled.

Structure (SMILES): COc1ccc(O)c(C(C)(C)C)c1 [BHA, butylated hydroxyanisole]
amount of Sn(II) remaining ([1]; SnF2:TSPP:antioxidant 1:1:0.3, pH 7, after 2 weeks of 60° C. aging, compared to SnF2-TSPP solution alone): positive effect on Sn(II) stability
Sn(II) left relative to fresh sample [2]: About 80%
change of phosphate vibrational bands / stability of stannous-pyrophosphate complex ([3]; SnF2:TSPP:antioxidant 1:1:0.3, pH 7, aged 2 weeks at 60° C.): improved the stability of stannous-pyrophosphate complex but were less effective than SAP

amount of Sn(II) remaining ([1]; buffer, 336 h, pH 7): positive effect on Sn(II) stability
Sn(II) left relative to fresh sample [2]: 70%
Structure (SMILES): Cc1cc(C(C)(C)C)c(O)c(C(C)(C)C)c1 [BHT, butylated hydroxytoluene]

amount of Sn(II) remaining ([1]; buffer, 336 h, pH 7): highest
Sn(II) left relative to fresh sample [2]: About 80%
Sn(II) content relative to fresh sample ([2]; higher SAP/Sn ratio (0.2, 0.3)): 72%
Sn(II) content relative to fresh sample ([2]; lower mole ratio of SAP/Sn (0.05, 0.1)): about 90%
head-space differential pressure change (O2 consumption) [4]: no significant pressure drop
Structure (SMILES): O=C1O[C@H]([C@@H](O)CO)C([O-])=C1OP(=O)([O-])[O-].[Na+].[Na+].[Na+] [SAP, sodium ascorbyl phosphate]

Structure (SMILES): O=C1O[C@H]([C@@H](O)CO)C([O-])=C1O.[Na+] [sodium ascorbate]
Sn(II) % ([1]; higher ascorbate/Sn ratio (0.2, 0.3)): 70-75%
Sn(II) % ([1]; lower ascorbate/Sn ratio (0.05, 0.1)): about 80%
stability of stannous-pyrophosphate complex ([3]; antioxidant/Sn molar ratio 0.05 to 0.3, pH 7, fresh, 1 week and 2 weeks at 60° C.): increased the stability of the stannous-pyrophosphate complex
